Target: T1, human TLL2 (Homo sapiens, UniProt Q9Y6L7)
T1 construct: amino acids 26-1015 of human TLL2 (NM_012465); made in house
T1 sequence (Q9Y6L7 150-1015): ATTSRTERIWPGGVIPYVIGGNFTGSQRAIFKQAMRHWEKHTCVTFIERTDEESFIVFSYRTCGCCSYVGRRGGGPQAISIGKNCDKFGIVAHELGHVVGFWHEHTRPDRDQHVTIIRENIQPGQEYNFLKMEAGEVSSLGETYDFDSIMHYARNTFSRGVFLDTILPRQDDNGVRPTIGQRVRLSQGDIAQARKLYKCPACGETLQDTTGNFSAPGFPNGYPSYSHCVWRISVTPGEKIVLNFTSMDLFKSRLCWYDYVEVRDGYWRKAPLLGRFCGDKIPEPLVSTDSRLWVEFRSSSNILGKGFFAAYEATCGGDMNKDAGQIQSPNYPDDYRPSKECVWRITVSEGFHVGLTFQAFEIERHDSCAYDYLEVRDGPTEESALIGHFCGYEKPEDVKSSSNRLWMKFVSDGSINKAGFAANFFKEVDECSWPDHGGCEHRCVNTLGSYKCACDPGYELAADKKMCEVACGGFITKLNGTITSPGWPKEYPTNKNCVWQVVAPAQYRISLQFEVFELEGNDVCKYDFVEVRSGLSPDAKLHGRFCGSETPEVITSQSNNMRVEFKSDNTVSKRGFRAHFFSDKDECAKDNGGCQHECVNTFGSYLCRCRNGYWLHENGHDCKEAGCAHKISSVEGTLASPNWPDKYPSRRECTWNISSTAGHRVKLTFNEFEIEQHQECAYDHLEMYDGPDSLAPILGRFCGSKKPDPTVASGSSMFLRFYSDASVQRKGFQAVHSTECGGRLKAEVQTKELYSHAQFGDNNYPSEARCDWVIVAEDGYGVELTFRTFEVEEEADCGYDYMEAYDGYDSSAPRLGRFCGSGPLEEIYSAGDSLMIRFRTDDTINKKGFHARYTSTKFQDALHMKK
Assay: Enzyme inhibition assay for human TLL2
Type: biochemical
Conditions: 18 nM TLL2, 5 μM promyostatin peptide substrate; read-out: pIC50, TLL2 enzyme inhibition assay (converted)
Description: Buffer components are purchased from Sigma-Aldrich (St. Louis, Mo.) or an equivalent supplier. The promyostatin peptide substrate is custom synthesized by American Peptide Company (Sunnyvale, Calif.) using the myostatin protein sequence (Uniprot accession number 014793) surrounding the cleavage site reviewed in Hopkins, D. R., et al., 2007 Matrix Biology, 26, 508-523. The procollagen peptide substrate used in the high enzyme BMP1 cleavage assay is custom synthesized by 21st Century Biochemicals (Marlboro, Mass.) using the procollagen Iα protein sequence (Uniprot accession number P02452) surrounding the cleavage site reviewed in Hopkins, D. R., et al., 2007 Matrix Biology, 26, 508-523.
The DNA sequence encoding amino acids 26-1015 of human TLL2 (NM_012465) is PCR amplified from DNA template with the human RAGE signal sequence at the N-terminus and Avi-6×His epitope tags at the C-terminus ([…]). […]
Inhibition of human TLL1 and TLL2 recombinant enzymes is measured in 10 ul endpoint assays in 384-well format using the same promyostatin peptide substrate employed in the above Enzyme Inhibition Assay for human BMP1. […] TLL1 and TLL2 reactions are quenched with 5 μl of 0.5 M EDTA and plates are read on a ViewLux (Perkin Elmer) multilabel plate reader using a 480 nm excitation filter and 540 nm emission filter. […]

IC50: < 0.794 µM
Compound: CCCCC[C@@H](C(=O)NCNC(=O)c1ccc(-c2ccc(C(=O)O)cc2)o1)[C@@H](CC)N(O)C=O [WO2015/104684 Example 71, 4-(5-((((R)-2-((R)-1-(N-hydroxyformamido)propyl)heptanamido)methyl)carbamoyl)furan-2-yl)benzoic acid]

From patent publication US20180362485A1, “N-HYDROXYFORMAMIDE COMPOUNDS AND COMPOSITIONS COMPRISING THEM FOR USE AS BMP l, TLL1 AND/OR TLL2 INHIBITORS” (GlaxoSmithKline Intellectual Property (No. 2) Limited, priority 2015, published 2018)
